Series [1] has as its target T1, 5-HT1A receptor (Rattus norvegicus, UniProt P19327).
T1 sequence (P19327 1-422): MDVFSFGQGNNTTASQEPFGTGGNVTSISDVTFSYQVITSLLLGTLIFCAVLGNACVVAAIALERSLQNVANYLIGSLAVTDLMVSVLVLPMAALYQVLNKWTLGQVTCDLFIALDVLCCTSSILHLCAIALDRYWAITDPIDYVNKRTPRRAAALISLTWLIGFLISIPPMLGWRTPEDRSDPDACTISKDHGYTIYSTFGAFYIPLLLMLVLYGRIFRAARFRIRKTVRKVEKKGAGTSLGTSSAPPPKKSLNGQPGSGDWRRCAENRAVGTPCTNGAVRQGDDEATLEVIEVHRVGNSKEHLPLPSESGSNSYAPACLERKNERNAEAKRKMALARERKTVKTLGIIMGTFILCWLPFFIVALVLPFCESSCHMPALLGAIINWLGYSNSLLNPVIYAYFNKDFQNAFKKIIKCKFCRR
Description: biochemical. It counts as binding. The note with it: displacement of [3H]8-OH-DPAT, rat brain membranes, 37° C., 10 minutes; test compounds as HCl salt. On the procedure: Thus, rat brain was homogenized in Tris-HCl buffer and centrifuged. The resultant precipitates were homogenized again with Tris-HCl buffer and incubated at 37° C. for ten minutes. The mixture was centrifuged again, and the precipitates were homogenized with Tris-HCl buffer containing pergiline, calcium chloride, and ascorbic acid to obtain a membrane preparation for use in the binding assay.
The preparation was mixed with [3H]8-OH-DPAT and a compound to be tested, and incubated at 37° C. for 10 minutes, filtered with whatman GF/B filter. Radioactivity remaining on the filter was measured by […].
Affinity of the test compound to 5-HT1A receptor is represented by Ki value which is calculated from the following equation. [formula] wherein [L] is the concentration of [3H]8-OH-DPAT, Kd is a dissociation constant, and IC50 is the concentration of test compound requisite for attaining 50% inhibition of the binding of [3H]8-OH-DPAT.

For a further series, the system named is rats. Description: conflict test (modified method of Vogel et al), anxiolytic activity. The class given is in vivo, rat. The note with it: oral, 1 hour after administration, control 7.4. On the procedure: The conflict test was performed to examine the anxiolytic activity of compounds. A modification of the method of Vogel et al (Psychopharmacology21, 1, 1971) was used.
Rats were deprived of water for 38 hours prior to the first training session (unpunished session). Each animal was placed in a conflict test apparatus. The rat was allowed to drink water through a spout, and the frequency of drinking action within 10 min was counted. Only rats making more than 100 licks progressed to a further 24 hr deprivation of water. Twenty four hours after the unpunished session, the rat was placed again in the test box. The second session (pre-drug punished session) consisting of a 3 min period started when the rat completed 20 licks and received the first electric shock. After every 20 unpunished licks, subsequent licking was punished. Only rats in which the number of receiving the shocks was reduced by at most 25 times during the pre-drug punished session were included in the test.
The compound to be tested was orally administered to each rat. One hour after the administration, the rat was re-placed in the apparatus to be examined. The number of shocks was counted for three minutes. Buspirone, an anxioselective anxiolytic drug, was used as a positive control.
The anti-conflict activity was evaluated to be positive when the number of shocks in the treated group was higher than that in the control group.

A further series has as its system male and female rats. Description: Acute Toxicity, oral, 7-days observation. It counts as in vivo, rat. As to conditions: p.o., suspended in 0.5% CMC-Na. On the procedure:
The compounds (I) suspended in 0.5% CMC-Na aqueous solution were orally administered to male and female rats, and 7-days observation was conducted. ALD (approximate lethal dose) value for Compound No. 1 was 100 mg/kg (p.o.).

The test system of series [2] is 5-HT1A receptor. The note with it: in words, literature; cited from earlier work.

Counter-ions that a name gives are not always drawn.

Take `c1ccc2c(c1)OCC(CNCCCOc1ccc3c(c1)OCO3)O2` (racemic) [No. 1 (dl)]: on 5-HT1A receptor [1], the Ki worked out at 1.6 nM. Further, in the series with rats (0.25 mg/kg), the “Frequency of receiving the shocks” value was found to be 20.9 times/3 minutes.
On to `c1ccc2c(c1)OCC(CNCCCOc1ccc3c(c1)OCCO3)O2` (racemic) [No. 2 (dl)], for which the Ki at 5-HT1A receptor [1] came to 2.5 nM.
Same read-out and setting: as for `c1ccc2c(c1)OCC(CNCCCOc1ccc3c(c1)OCCCO3)O2` (racemic) [No. 3 (dl)], the figure is 7.6 nM; as for `c1ccc2c(c1)OCC(CNCCCCOc1ccc3c(c1)OCCCO3)O2` (racemic) [No. 6 (dl)], 2.9 nM; as for `c1ccc2c(c1)OCC(CNCCCCCOc1ccc3c(c1)OCO3)O2` (racemic) [No. 7 (dl)], 4.09 nM.
Take `c1ccc2c(c1)OCC(CNCCCOc1cccc3c1OCO3)O2` (racemic) [No. 13 (dl)]: the Ki on 5-HT1A receptor [1] amounted to 9.7 nM.
With `c1ccc2c(c1)OC[C@H](CNCCCOc1ccc3c(c1)OCO3)O2` [Compound No. 1, 5-[3-{(2S)-(1,4-Benzodioxan-2-ylmethyl) -amino}propoxy[-1,3-benzodioxol hydrochloride], the Ki at 5-HT1A receptor [1] was 0.29 nM. The “Frequency of receiving the shocks” value with rats (0.05 mg/kg) stood at 20.1 times/3 minutes. In the series with male and female rats, the “ALD (approximate lethal dose)” value stood at 100 mg/kg.
Consider `c1ccc2c(c1)OC[C@H](CNCCCCOc1ccc3c(c1)OCO3)O2` [Compound No. 4, 5-[4-{(2S)-(1,4-Benzodioxan-2-ylmethyl) -amino}butoxy]-1,3-benzodioxol hydrochloride], for which the Ki on 5-HT1A receptor [1] was 0.91 nM.
For `c1ccc2c(c1)OC[C@H](CNCCCCCOc1ccc3c(c1)OCO3)O2` [Compound No. 7, 5-[5-{(2S)-(1,4-Benzodioxan-2-ylmethyl) -amino}pentyloxy]-1,3-benzodioxol hydrochloride], the Ki on 5-HT1A receptor [1] is 1.84 nM.
On to `O=C1c2ccccc2S(=O)(=O)N1CCCCN1CCN(c2ncccn2)CC1` [Ipsapirone, 2-{4-[4-(2-pyrimidinyl)-1-piperazynyl]butyl}-1,2-benzisothiazol-3-(2H)one-1,1-dioxydehydrochloride], for which the “5-HT1A receptor binding (known compounds)” value in the series on 5-HT1A receptor [2] was 5-HT1A receptor-binding compounds.
On to `c1ccc2c(c1)OC[C@@H](CNCCCOc1ccc3c(c1)OCO3)O2` [No. 1 (R)], for which the Ki at 5-HT1A receptor [1] was determined as 3.9 nM. Further, the “Frequency of receiving the shocks” value in the series on rats (0.5 mg/kg) came to 12.5 times/3 minutes.
For the compound `O=C1C2C3CCC(C3)C2C(=O)N1CCCCN1CCN(c2ncccn2)CC1` (stereo not drawn) [SM-3997, 3aα, 4β, 7β, 7aβ-hexahydro-2-{4-[4-(2-pyrimidinyl)-1-piperazinyl]butyl}-4,7-methan-1H-isoindol-1,3(2H)dione dihydrogen citrate], the “5-HT1A receptor binding (known compounds)” value with 5-HT1A receptor [2] is reported as 5-HT1A receptor-binding compounds.
Regarding `c1ccc2c(c1)OC[C@H](CNCCCOc1ccc3c(c1)OCCO3)O2` [compound 2], the “Frequency of receiving the shocks” value with rats (0.2 mg/kg) amounted to 21.8 times/3 minutes.
Same read-out and setting: as for `c1ccc2c(c1)OC[C@H](CNCCCOc1ccc3c(c1)OCCCO3)O2` [compound 3], the figure is 18.0 times/3 minutes.

A word on the Ki: it is a dissociation constant, usually derived from enzyme kinetics or from competition with a known ligand.

The values are drawn from patent publication US5234948A, “Optically active alkylenedioxybenzene derivatives and their use in therapy” (Mitsubishi Kasei Corporation, priority 1990, dated 1993).
